Measured values as given in patent US6500431B1, “Inhibitors of angiogenesis and tumor growth” (University of Southern California, priority 1998, dated 2002).
No end group written: not given here.

Key:
Assay type in all cases: cell-based
T1 cells = assay: Fibroblast proliferation assay (MTT); settings: for Cell Proliferation Activity (% of control), T1: concentration not given, 5 days; for Fibroblast Proliferation, % of Control: 5000 T1 cells/well, 7 days
Protocol: To determine if Saposin B polypeptides had anti-angiogenic activity, a series of overlapping polypeptides were synthesized and tested in the KS Y-1 cell proliferation assay. The overlapping polypeptides are SEQ ID NOS:13 though 42. Cell Proliferation assays in either KS cells or fibroblast. Cells were plated in 48 well plates at equal numbers in appropriate culture medium. Cells were treated with the test compounds at various concentrations on day one, and on day 3. […] KS cells were used to represent the activated endothelial cells, while fibroblast cells represent the control cells. The results are remarkable for the lack of toxicity to the fibroblast relative to the activated endothelial cells/KS cells.

KS Y-1 cells = assay: KS Y-1 cell proliferation assay (MTT); settings: for Cell Proliferation Activity (% of control), KSY-1: concentration not printed; for Cell Proliferation Activity (% of control), KSY-1 / KS Cell Proliferation, % of Control: 5 days, MTT; for KS Cell Proliferation, % of Control: 7,500 KS Y-1 cells/well
Protocol: To determine if Saposin B polypeptides had anti-angiogenic activity, a series of overlapping polypeptides were synthesized and tested in the KS Y-1 cell proliferation assay. The overlapping polypeptides are SEQ ID NOS:13 though 42. Cell Proliferation assays in either KS cells or fibroblast. Cells were plated in 48 well plates at equal numbers in appropriate culture medium. Cells were treated with the test compounds at various concentrations on day one, and on day 3. MTT was done on day 5. KS cells were used to represent the activated endothelial cells, while fibroblast cells represent the control cells. The results are remarkable for the lack of toxicity to the fibroblast relative to the activated endothelial cells/KS cells.

[1] = tested on: endothelial cells (HUVEC); assay: Growth inhibition of endothelial cells; settings: for activity against endothelial cells: Saposin C: highest concentration tested 50 μg/mL
Protocol: FIG. 1D: Activity of n-terminus decapeptide (DVCQDCIQMV; SEQ ID NO 21).
FIG. 1E: Activity of N-terminus pentapeptide (DVCQC; SEQ ID NO: 28).
(§1) By SDS-PAGE, the bacterial product was smaller than the eukaryotic protein. Because prokaryotically expressed proteins are not glycosylated, the difference in molecular weights probably represents the presence of carbohydrate in the eukaryotic protein. Recombinant proteins were then tested in KS, endothelial and control cell lines. Activity was found only in KS cell lines and endothelial cells.

KS cell lines = assay: Activity of recombinant Prosaposin chains on growth of KS cell lines; settings: Saposin C: highest concentration tested 50 μg/mL
Excerpt: In order to determine whether recombinant Saposin B has anti-angiogenic activity, the coding region of each of the Prosaposin chains was amplified from fibroblast cell lines and cloned into both bacterial (pGEX-KG) and eukaryotic (pcDNA 3.1His A) expression vectors.
The PCR products were digested with the respective restriction enzymes and the restriction products were inserted into the pGEX-KG vector for bacterial expression. pGEX-KG vector comprises a glutathione S transferase (GST)-tag at the […] of the insertion site so that a GST-fusion protein is expressed. The GST-tag is used to aid in purification of the recombinant protein. After elution from a glutathione-Sepharose 4B column, the GST-tagged proteins were incubated with thrombin (4 μg/ml) for 4 hr at room temperature (22-25° C.) in 50 mM Tris, pH 8.3, 3 mM CaCl2, 150 mM NaCl to cleave GST from the fusion protein. Free GST was removed from the preparation by passing the digested fusion protein through the glutathione-Sepharose 4B column.
as §1

[2] = first of two KSY-1 value columns
[3] = second of two KSY-1 value columns

CQDCIQMV [SEQ ID NO:30]
Cell Proliferation Activity (% of control), T1 (T1 cells): 84 % of control | Cell Proliferation Activity (% of control), T1 (T1 cells; first of two T1 value columns): 92 % of control | Cell Proliferation Activity (% of control), KSY-1 (KS Y-1 cells; [2]): 77 % of control | Cell Proliferation Activity (% of control), KSY-1 (KS Y-1 cells; [3]): 35 % of control

DCIQMV [SEQ ID NO:23]
KS Cell Proliferation, % of Control (KS Y-1 cells; 1 μg/mL): 88.7 % of Control | KS Cell Proliferation, % of Control (KS Y-1 cells; 5 μg/mL): 83.5 % of Control | KS Cell Proliferation, % of Control (KS Y-1 cells; 10 μg/ml): 68.7 % of Control | KS Cell Proliferation, % of Control (KS Y-1 cells; 50 μg/mL): 51.3 % of Control | Cell Proliferation Activity (% of control), KSY-1 (KS Y-1 cells; [2]): 68 % of control | Cell Proliferation Activity (% of control), KSY-1 (KS Y-1 cells; [3]): 51 % of control

DVCQDC [SEQ ID NO:27]
Cell Proliferation Activity (% of control), T1 (T1 cells): 75 % of control | Cell Proliferation Activity (% of control), T1 (T1 cells; first of two T1 value columns): 88 % of control | Cell Proliferation Activity (% of control), KSY-1 (KS Y-1 cells; [2]): 60 % of control | Cell Proliferation Activity (% of control), KSY-1 (KS Y-1 cells; [3]): 22 % of control

DVCQDCI [SEQ ID NO:26]
Cell Proliferation Activity (% of control), T1 (T1 cells): 81 % of control | Cell Proliferation Activity (% of control), T1 (T1 cells; first of two T1 value columns): 96 % of control | Cell Proliferation Activity (% of control), KSY-1 (KS Y-1 cells; [2]): 72 % of control | Cell Proliferation Activity (% of control), KSY-1 (KS Y-1 cells; [3]): 40 % of control

DVCQDCIQ [SEQ ID NO:25]
Cell Proliferation Activity (% of control), T1 (T1 cells): 89 % of control | Cell Proliferation Activity (% of control), T1 (T1 cells; first of two T1 value columns): 98 % of control | Cell Proliferation Activity (% of control), KSY-1 (KS Y-1 cells; [2]): 72 % of control | Cell Proliferation Activity (% of control), KSY-1 (KS Y-1 cells; [3]): 39 % of control

DVCQDCIQM [SEQ ID NO:24]
Cell Proliferation Activity (% of control), T1 (T1 cells): 84 % of control | Cell Proliferation Activity (% of control), T1 (T1 cells; first of two T1 value columns): 96 % of control | Cell Proliferation Activity (% of control), KSY-1 (KS Y-1 cells; [2]): 68 % of control | Cell Proliferation Activity (% of control), KSY-1 (KS Y-1 cells; [3]): 46 % of control

DVCQDCIQMV [SEQ ID NO:21]
growth inhibition of endothelial cells ([1]; FIG. 1, 1D, 1E): Only endothelial cells show dose dependent growth inhibition | Fibroblast Proliferation, % of Control (T1 cells; 1 μg/mL): 100.0 % of Control | Fibroblast Proliferation, % of Control (T1 cells; 10 μg/mL): 91.3 % of Control | Fibroblast Proliferation, % of Control (T1 cells; 50 μg/mL): 87.0 % of Control | KS Cell Proliferation, % of Control (KS Y-1 cells; 1 μg/mL): 88.7 % of Control | KS Cell Proliferation, % of Control (KS Y-1 cells; 5 μg/mL): 68.7 % of Control | KS Cell Proliferation, % of Control (KS Y-1 cells; 10 μg/ml): 26.1 % of Control | KS Cell Proliferation, % of Control (KS Y-1 cells; 50 μg/mL): 7.0 % of Control | Cell Proliferation Activity (% of control), KSY-1 (KS Y-1 cells; [2]): 29 % of control

GDVCQ [SEQ ID NO:22]
Fibroblast Proliferation, % of Control (T1 cells; 1 μg/mL): 95.7 % of Control | Fibroblast Proliferation, % of Control (T1 cells; 10 μg/mL): 95.7 % of Control | Fibroblast Proliferation, % of Control (T1 cells; 50 μg/mL): 87.0 % of Control | KS Cell Proliferation, % of Control (KS Y-1 cells; 1 μg/mL): 158.3 % of Control | KS Cell Proliferation, % of Control (KS Y-1 cells; 5 μg/mL): 77.4 % of Control | KS Cell Proliferation, % of Control (KS Y-1 cells; 10 μg/ml): 59.1 % of Control | KS Cell Proliferation, % of Control (KS Y-1 cells; 50 μg/mL): 37.4 % of Control | Cell Proliferation Activity (% of control), KSY-1 (KS Y-1 cells; [2]): 59 % of control | Cell Proliferation Activity (% of control), KSY-1 (KS Y-1 cells; [3]): 28 % of control

GDVCQDSIQMV [SEQ ID NO:33, GDVCQDSIQMV]
IC50 (KS Y-1 cells): 7.8 µM

GDVSQDCIQMV [SEQ ID NO:32, GDVSQDCIQMV]
IC50 (KS Y-1 cells): 18 µM

GDVSQDSIQMV [SEQ ID NO:20]
Fibroblast Proliferation, % of Control (T1 cells; 1 μg/mL): 91.3 % of Control | Fibroblast Proliferation, % of Control (T1 cells; 10 μg/mL): 95.7 % of Control | Fibroblast Proliferation, % of Control (T1 cells; 50 μg/mL): 95.7 % of Control | KS Cell Proliferation, % of Control (KS Y-1 cells; 1 μg/mL): 100.0 % of Control | KS Cell Proliferation, % of Control (KS Y-1 cells; 5 μg/mL): 96.4 % of Control | KS Cell Proliferation, % of Control (KS Y-1 cells; 10 μg/ml): 92.9 % of Control | KS Cell Proliferation, % of Control (KS Y-1 cells; 50 μg/mL): 82.1 % of Control | Cell Proliferation Activity (% of control), KSY-1 (KS Y-1 cells; [2]): 93 % of control | Cell Proliferation Activity (% of control), KSY-1 (KS Y-1 cells; [3]): 84 % of control

IQMVTDIQTAVRTNSTF [SEQ ID NO:14]
KS Cell Proliferation, % of Control (KS Y-1 cells; 10 μg/ml): 89.3 % of Control | KS Cell Proliferation, % of Control (KS Y-1 cells; 100 μg/mL): 60.7 % of Control | KS Cell Proliferation, % of Control (KS Y-1 cells; 500 μg/mL): 28.6 % of Control

QDCIQMV [SEQ ID NO:31, QDCIQMV]
Cell Proliferation Activity (% of control), T1 (T1 cells): 80 % of control | Cell Proliferation Activity (% of control), T1 (T1 cells; first of two T1 value columns): 87 % of control | IC50 (KS Y-1 cells): 16.6 µM | Cell Proliferation Activity (% of control), KSY-1 (KS Y-1 cells; [2]): 74 % of control

QMMMHMQPKEICALVG [SEQ ID NO:18]
KS Cell Proliferation, % of Control (KS Y-1 cells; 10 μg/ml): 88.9 % of Control | KS Cell Proliferation, % of Control (KS Y-1 cells; 100 μg/mL): 86.4 % of Control | KS Cell Proliferation, % of Control (KS Y-1 cells; 500 μg/mL): 58.0 % of Control

QMVTDIQTQVRTNSTF [SEQ ID NO:43, QMVTDIQTQVRTNSTF]
IC50 (KS Y-1 cells): 14 µM

QPKDNGDVCQDCIQV [SEQ ID NO:13]
KS Cell Proliferation, % of Control (KS Y-1 cells; 1 μg/mL): 51.8 % of Control | KS Cell Proliferation, % of Control (KS Y-1 cells; 10 μg/ml): 17.9 % of Control | KS Cell Proliferation, % of Control (KS Y-1 cells; 50 μg/mL): 1.8 % of Control | KS Cell Proliferation, % of Control (KS Y-1 cells; 100 μg/mL): 1.8 % of Control | KS Cell Proliferation, % of Control (KS Y-1 cells; 500 μg/mL): 1.8 % of Control

STFVQALVEHVKEECDR [SEQ ID NO:15]
KS Cell Proliferation, % of Control (KS Y-1 cells; 10 μg/ml): 101.8 % of Control | KS Cell Proliferation, % of Control (KS Y-1 cells; 100 μg/mL): 60.7 % of Control | KS Cell Proliferation, % of Control (KS Y-1 cells; 500 μg/mL): 28.6 % of Control

VCQDCIQMV [SEQ ID NO:29]
Cell Proliferation Activity (% of control), T1 (T1 cells): 86 % of control | Cell Proliferation Activity (% of control), T1 (T1 cells; first of two T1 value columns): 95 % of control | Cell Proliferation Activity (% of control), KSY-1 (KS Y-1 cells; [2]): 65 % of control | Cell Proliferation Activity (% of control), KSY-1 (KS Y-1 cells; [3]): 33 % of control

YISQYSEIAIQMMMHMQP [SEQ ID NO:17, YISQYSEIAIQMMMHMQP]
IC50 (KS Y-1 cells): 20 µM | KS Cell Proliferation, % of Control (KS Y-1 cells; 10 μg/ml): 96.3 % of Control | KS Cell Proliferation, % of Control (KS Y-1 cells; 100 μg/mL): 86.4 % of Control | KS Cell Proliferation, % of Control (KS Y-1 cells; 500 μg/mL): 46.9 % of Control

B1: Saposin D: sphingolipid-binding glycoprotein derived from Prosaposin; recombinant (protein, UniProt P07602 405-486, looked up)
Saposin-D: DGGFCEVCKKLVGYLDRNLEKNSTKQEILAALEKGCSFLPDPYQKQCDQFVAEYEPVLIEILVEVMDPSFVCLKIGACPSAH
modifications: Saposin-D
notes: recombinant
activity against endothelial cells [1]: no activity | activity against KS cell lines (KS cell lines): no activity

B2: Saposin C: sphingolipid-binding glycoprotein derived from Prosaposin; recombinant (protein, UniProt P07602 311-390, looked up)
Saposin-C: SDVYCEVCEFLVKEVTKLIDNNKTEKEILDAFDKMCSKLPKSLSEECQEVVDTYGSSILSILLEEVSPELVCSMLHLCSG
modifications: Saposin-C
notes: recombinant
activity against endothelial cells [1]: no activity | activity against KS cell lines (KS cell lines): no activity

B3: Saposin A: sphingolipid-binding glycoprotein derived from Prosaposin; recombinant (protein, UniProt P07602 60-142, looked up)
Saposin-A: SLPCDICKDVVTAAGDMLKDNATEEEILVYLEKTCDWLPKPNMSASCKEIVDSYLPVILDIIKGEMSRPGEVCSALNLCESLQ
modifications: Saposin-A
notes: recombinant
activity against endothelial cells [1]: no activity | activity against KS cell lines (KS cell lines): no activity
